This passage reports logP results from the OPERA property sets (Mansouri et al. 2018).

In the case of `CCn1nnnc1Oc1ccc(NC(=O)N(C)C)cc1Cl`, the logP came out at 1.5. Next, `CN(C)C(=O)Nc1ccc(Oc2nnnn2C(C)(C)C)c(Cl)c1`: 2.25; `CNC(=O)N(C)C(=O)Nc1cc(F)ccc1F`: 2.4. Regarding `CNC(=O)N(C)C(=O)Nc1cc(C(=O)OC)ccc1F`, the logP was determined as 2.28. Next, `CN(C)C(=O)Nc1ccc(Oc2nnn(C)n2)cc1`: 0.63; `CNC(=O)N(C)C(=O)Nc1cc(C(C)C)ccc1F`: 3.53; `CN(C)C(=O)Nc1ccc(Oc2nnn(Cc3ccccc3)n2)cc1`: 2.25. Regarding `CCCCCCCCn1nnc(Oc2ccc(NC(=O)N(C)C)cc2)n1`, the logP was 4.4. With `C=CCn1nnc(Oc2ccc(NC(=O)N(C)C)cc2)n1`, the logP stood at 1.65. In turn, `CCCCCCCCn1nnnc1Oc1ccc(NC(=O)N(C)C)cc1` displayed a logP of 3.96. As to `CNC(=O)N(C)C(=O)Nc1cc(C(C)=O)ccc1F`, the logP was 1.82. In the case of `CNC(=O)N(C)C(=O)Nc1ccccc1F`, the logP turned out to be 2.12. `c1ccc(C2=NOC3COC(c4ccccc4)OCC23)cc1` (stereo unspecified) returned a logP of 3.42. Consider `CCn1nnc(Oc2ccc(NC(=O)N(C)C)cc2)n1`, for which the logP came to 1.1. For the compound `Fc1ccccc1C1OCC2ON=C(c3ccccc3)C2CO1` (stereo unspecified), the logP was 2.35.

`CNC(=O)N(C)C(=O)Nc1cc(OC(C)C)ccc1F`: the logP was 3.08.

The compound `CCOC(=O)Cn1nnnc1Oc1ccc(NC(=O)N(C)C)cc1` returned a logP of 0.7.

In turn, `CCC(CC)c1ccc(F)c(NC(=O)N(C)C(=O)NC)c1` showed a logP of 4.46. In turn, `CC(C)n1nnc(Oc2ccc(NC(=O)N(C)C)cc2)n1` came in with a logP of 1.45.

With `CN(C)C(=O)Nc1ccc(Oc2nnnn2C(C)(C)C)cc1`, the logP was 1.65. `CNC(=O)N(C)C(=O)Nc1cc(S(=O)(=O)C(C)C)ccc1F` came in with a logP of 1.87. Take `CN(C)C(=O)Nc1ccc(Oc2nnnn2Cc2ccccc2)cc1`: the logP amounted to 1.7. On to `C#CCn1nnnc1Oc1ccc(NC(=O)N(C)C)cc1`, for which the logP was 1. Turning to `CN(C)C(=O)Nc1ccc(Oc2nnn(C(C)(C)C)n2)cc1`, the logP is 2.08. In the case of `CNC(=O)N(C)C(=O)Nc1cc(C2CCCCC2)ccc1F`, the logP amounted to 4.58.

`CNC(=O)N(C)C(=O)Nc1cc(Cc2ccccc2)ccc1F` had a logP of 3.9. With `C#CCn1nnc(Oc2ccc(NC(=O)N(C)C)cc2)n1` the figure was 1.65; with `CNC(=O)N(C)C(=O)Nc1cc(C(C)(C)C)ccc1F`, 3.96. Take `CNC(=O)N(C)C(=O)Nc1cc(I)ccc1F`: the logP came to 3.58. In the case of `CCc1ccc(F)c(NC(=O)N(C)C(=O)NC)c1`, the logP was 3.23.

Regarding `CNC(=O)N(C)C(=O)Nc1cc([N+](=O)[O-])ccc1F`, the logP stood at 2.3. On to `CNC(=O)N(C)C(=O)Nc1cc(-c2ccccc2)ccc1F`, for which the logP is 3.78. As for `CN(C)C(=O)Nc1ccc(Oc2nnn(CCC#N)n2)cc1`, the logP came to 0.28.

Compound `CNC(=O)N(C)C(=O)Nc1cc(OC)ccc1F` returned a logP of 2.14. Take `CN(C)C(=O)Nc1ccc(Oc2nnn(C3CCCCC3)n2)cc1`: the lipophilicity (logP) was 2.67. In turn, `Cc1ccccc1C1OCC2ON=C(c3ccccc3)C2CO1` (stereo unspecified) displayed a logP of 2.72.
